This note sets out measurements from patent US20170226560A1, “GOLD NANOPARTICLE-BASED HOMOGENEOUS COLORIMETRIC DIAGNOSTIC ASSAY FOR THE DETECTION OF PROTEASES AND PROTEASE INHIBITORS” (IMRA America, Inc., priority 2014, published 2017).

Ends that are not written are not given here.

The test system of this assay is trypsin. In words: Colloidal gold nanoparticle-based colorimetric assay for trypsin (hydrolytic cleavage of peptide substrate). The class given is biochemical. As to conditions: 1000 nM peptide substrate, trypsin 200 pM, 20° C. As to the method:
Based on the design criteria for the peptide substrate mentioned above, a sequence of amino acids in the peptide substrate of SEQ ID NO: 1 Lys-Lys-Gly-Phe-Pro-Arg-Gly-Gly-Asp-Cys was used in an assay method patterned after FIG. 1a. Unless noted otherwise, all incubations and reactions reported in the present specification were conducted at 20° C. The final reaction volume in all experiments described in the present specification, unless noted otherwise, was 500 microliters and the gold nanoparticle concentration was 1 nM. […] Thus, in all of the described experiments the aggregation state of any gold nanoparticle solution could be measured after 30 minutes or less. […] All of these can be evaluated using the present inventive assay methods. […]
After confirming that the peptide substrate SEQ ID NO: 1 Lys-Lys-Gly-Phe-Pro-Arg-Gly-Gly-Asp-Cys did induce the aggregation of negative surface charged gold nanoparticles, we carried out another experiment of examining the ultraviolet-visible spectra of solutions of colloidal gold nanoparticles after they were added to solutions of peptide substrates that had been pre-exposed for different time periods of from 0 minutes (min) to 60 min to trypsin. […] The absorbance spectrum shifts back to a maximum at 520 nm±5 nm, non-aggregated nanoparticles, as the pre-exposure time increases. […]

With “KKGFPRGGDC [SEQ ID NO: 1, peptide substrate cleaved by trypsin; intact peptide aggregates negatively charged gold nanoparticles]”, the “time for complete hydrolytic cleavage of the peptide substrate by trypsin” value is given as “more than 60 min”.
